{
  "source": "patent US9340590B2",
  "about": "(priority 2011, dated 2016)",
  "assay_in_all_cases": "cell-based",
  "key": {"[1]": {"molecular_target": "hNav1.5 (Homo sapiens, UniProt Q14524)", "conditions": "IonWorks Quattro, read-out: IWQ Use Nav1.5"}, "[2]": {"molecular_target": "hNav1.7 (Homo sapiens, UniProt Q15858)", "sequence (Q15858 whole entry, looked up)": "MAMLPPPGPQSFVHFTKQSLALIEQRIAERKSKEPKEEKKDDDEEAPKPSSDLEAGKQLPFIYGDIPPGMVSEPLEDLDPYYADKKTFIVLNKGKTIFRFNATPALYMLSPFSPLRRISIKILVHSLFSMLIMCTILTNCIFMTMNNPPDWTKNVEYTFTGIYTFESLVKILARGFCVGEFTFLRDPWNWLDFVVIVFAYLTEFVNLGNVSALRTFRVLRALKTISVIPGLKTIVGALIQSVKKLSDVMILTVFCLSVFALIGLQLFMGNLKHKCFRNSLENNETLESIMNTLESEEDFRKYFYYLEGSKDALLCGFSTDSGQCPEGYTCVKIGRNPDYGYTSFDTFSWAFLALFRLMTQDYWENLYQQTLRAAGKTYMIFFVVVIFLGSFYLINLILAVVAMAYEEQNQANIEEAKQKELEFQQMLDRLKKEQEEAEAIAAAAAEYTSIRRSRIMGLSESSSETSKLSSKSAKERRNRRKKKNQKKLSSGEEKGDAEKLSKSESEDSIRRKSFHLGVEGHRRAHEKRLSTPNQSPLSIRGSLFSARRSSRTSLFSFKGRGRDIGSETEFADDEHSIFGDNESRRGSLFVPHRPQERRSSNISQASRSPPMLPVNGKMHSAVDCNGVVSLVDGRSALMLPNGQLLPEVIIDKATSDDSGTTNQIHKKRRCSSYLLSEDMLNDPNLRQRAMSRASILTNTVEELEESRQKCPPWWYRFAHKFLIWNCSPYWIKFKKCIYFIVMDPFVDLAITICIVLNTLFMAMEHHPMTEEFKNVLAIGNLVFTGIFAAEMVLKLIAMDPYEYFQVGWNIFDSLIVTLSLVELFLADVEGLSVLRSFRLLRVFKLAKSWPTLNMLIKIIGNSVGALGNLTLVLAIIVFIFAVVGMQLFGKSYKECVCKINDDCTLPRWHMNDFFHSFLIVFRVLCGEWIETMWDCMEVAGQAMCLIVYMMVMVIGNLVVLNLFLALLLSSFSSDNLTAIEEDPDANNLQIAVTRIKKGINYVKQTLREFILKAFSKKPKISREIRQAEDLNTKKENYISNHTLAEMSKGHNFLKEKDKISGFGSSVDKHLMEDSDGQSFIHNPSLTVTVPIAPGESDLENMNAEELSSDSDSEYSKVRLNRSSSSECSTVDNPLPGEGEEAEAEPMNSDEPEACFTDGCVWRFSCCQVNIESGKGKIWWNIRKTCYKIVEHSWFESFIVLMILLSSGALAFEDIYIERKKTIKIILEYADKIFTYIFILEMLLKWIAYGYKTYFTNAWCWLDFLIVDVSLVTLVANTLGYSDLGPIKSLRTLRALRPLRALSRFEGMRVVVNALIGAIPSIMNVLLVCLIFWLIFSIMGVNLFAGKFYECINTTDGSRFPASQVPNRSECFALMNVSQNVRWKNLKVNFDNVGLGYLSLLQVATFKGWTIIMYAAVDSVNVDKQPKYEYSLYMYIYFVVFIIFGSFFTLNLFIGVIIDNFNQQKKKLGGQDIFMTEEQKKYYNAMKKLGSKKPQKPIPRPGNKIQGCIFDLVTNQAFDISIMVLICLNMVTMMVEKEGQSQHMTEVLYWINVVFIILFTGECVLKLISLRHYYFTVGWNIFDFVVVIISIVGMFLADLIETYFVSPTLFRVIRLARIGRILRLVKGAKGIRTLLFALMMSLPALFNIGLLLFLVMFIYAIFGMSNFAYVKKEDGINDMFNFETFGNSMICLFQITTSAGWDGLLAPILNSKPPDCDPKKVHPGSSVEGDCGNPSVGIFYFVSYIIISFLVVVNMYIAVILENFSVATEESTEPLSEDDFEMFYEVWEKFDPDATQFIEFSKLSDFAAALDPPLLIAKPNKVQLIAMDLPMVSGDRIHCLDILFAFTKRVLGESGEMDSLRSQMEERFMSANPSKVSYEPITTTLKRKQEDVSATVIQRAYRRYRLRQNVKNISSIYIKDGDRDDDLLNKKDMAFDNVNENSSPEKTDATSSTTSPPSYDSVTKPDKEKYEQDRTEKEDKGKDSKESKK", "assay_type": "cell-based"}, "[3]": {"molecular_target": "hNav1.3 (Homo sapiens, UniProt Q9NY46)", "sequence (Q9NY46 whole entry, looked up)": "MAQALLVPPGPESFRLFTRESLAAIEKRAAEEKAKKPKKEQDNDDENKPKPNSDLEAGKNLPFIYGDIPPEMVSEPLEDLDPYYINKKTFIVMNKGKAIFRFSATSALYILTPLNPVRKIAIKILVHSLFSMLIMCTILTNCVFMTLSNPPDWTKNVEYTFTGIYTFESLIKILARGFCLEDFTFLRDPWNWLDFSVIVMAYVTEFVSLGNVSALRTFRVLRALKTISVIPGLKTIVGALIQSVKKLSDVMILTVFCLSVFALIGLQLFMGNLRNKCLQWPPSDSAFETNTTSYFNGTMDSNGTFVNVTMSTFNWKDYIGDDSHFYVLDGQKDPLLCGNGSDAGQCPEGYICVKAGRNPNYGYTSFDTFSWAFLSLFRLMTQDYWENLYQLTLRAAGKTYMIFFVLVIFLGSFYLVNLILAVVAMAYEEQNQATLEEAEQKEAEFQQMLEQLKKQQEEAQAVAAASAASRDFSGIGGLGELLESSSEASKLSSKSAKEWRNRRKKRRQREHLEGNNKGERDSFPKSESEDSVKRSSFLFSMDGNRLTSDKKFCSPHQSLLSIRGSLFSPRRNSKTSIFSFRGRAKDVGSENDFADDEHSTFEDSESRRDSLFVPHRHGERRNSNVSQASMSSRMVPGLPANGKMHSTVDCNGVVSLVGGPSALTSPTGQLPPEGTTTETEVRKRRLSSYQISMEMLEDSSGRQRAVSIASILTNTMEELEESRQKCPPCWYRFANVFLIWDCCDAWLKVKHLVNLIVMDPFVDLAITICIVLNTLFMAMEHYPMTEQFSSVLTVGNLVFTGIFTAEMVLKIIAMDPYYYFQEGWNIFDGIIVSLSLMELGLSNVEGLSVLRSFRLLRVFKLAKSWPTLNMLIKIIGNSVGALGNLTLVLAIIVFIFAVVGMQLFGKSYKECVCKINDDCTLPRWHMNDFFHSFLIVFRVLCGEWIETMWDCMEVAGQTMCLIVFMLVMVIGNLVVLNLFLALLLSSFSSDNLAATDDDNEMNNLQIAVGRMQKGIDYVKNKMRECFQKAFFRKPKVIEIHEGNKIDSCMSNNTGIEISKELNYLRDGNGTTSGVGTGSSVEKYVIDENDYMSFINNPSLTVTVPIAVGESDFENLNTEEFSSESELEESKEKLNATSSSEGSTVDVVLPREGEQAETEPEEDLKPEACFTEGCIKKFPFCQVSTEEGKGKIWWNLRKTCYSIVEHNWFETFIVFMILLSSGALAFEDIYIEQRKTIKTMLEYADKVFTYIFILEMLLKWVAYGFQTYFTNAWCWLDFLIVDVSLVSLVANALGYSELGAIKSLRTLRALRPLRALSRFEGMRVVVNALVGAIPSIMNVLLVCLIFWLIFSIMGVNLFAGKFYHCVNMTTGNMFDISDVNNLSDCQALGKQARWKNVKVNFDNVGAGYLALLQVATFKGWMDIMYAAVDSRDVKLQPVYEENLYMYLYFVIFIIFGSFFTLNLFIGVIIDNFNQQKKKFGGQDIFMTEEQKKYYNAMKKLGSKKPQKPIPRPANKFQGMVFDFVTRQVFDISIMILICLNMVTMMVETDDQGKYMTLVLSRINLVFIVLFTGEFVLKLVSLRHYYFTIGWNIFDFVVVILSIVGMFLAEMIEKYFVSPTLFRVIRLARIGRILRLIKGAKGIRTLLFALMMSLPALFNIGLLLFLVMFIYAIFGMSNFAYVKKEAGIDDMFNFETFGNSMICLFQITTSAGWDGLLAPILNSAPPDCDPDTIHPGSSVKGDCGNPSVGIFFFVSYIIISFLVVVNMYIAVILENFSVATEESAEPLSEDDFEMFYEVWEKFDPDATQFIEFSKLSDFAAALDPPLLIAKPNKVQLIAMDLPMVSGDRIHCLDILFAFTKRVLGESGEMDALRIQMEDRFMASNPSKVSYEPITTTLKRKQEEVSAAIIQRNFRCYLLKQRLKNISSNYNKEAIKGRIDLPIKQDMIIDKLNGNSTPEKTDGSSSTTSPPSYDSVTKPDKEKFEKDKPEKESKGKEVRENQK", "conditions": "IonWorks Quattro, read-out: IWQ Use Nav1.3"}, "[4]": {"conditions": "Table 25, IonWorks Quattro, use, […], read-out: IWQ Use Nav1.7"}, "[5]": {"conditions": "clamped to −110 mV, depolarized to −10 mV, 5 min after compound, n=2"}, "[6]": {"conditions": "IonWorks Quattro, use-dependent block, hNav1.7, read-out: IWQ Use Nav1.7"}},
  "note": "Like-named read-outs stand apart in the source and are kept apart here. Positions of bridges follow the written chain, without caps; N, C: chain ends. Non-standard residues stand in square brackets, D forms with d. Residues, ends and D or L forms follow the SMILES beside them. NMeF = CN[C@@H](Cc1ccccc1)C(=O)O; 2Pal = N[C@@H](Cc1ccccn1)C(=O)O; Cha = N[C@@H](CC1CCCCC1)C(=O)O",
  "data": [
    {"smiles": "CC[C@H](C)[C@@H]1NC(=O)[C@@H]2CSSC[C@@H]3NC(=O)[C@H](C(C)C)NC(=O)[C@H](CC(C)C)NC(=O)[C@H](CC(N)=O)NC(=O)[C@@H]4CCCN4C(=O)[C@H](CCCNC(=N)N)NC(=O)[C@H](CSSC[C@H](NC(=O)[C@@H](N)CC(=O)O)C(=O)N[C@@H](CC(C)C)C(=O)NCC(=O)N[C@@H](CC4CCCCC4)C(=O)N[C@@H](Cc4ccccc4)C(=O)N[C@@H](CCCNC(=N)N)C(=O)N[C@@H](CCCCN)C(=O)N2)NC(=O)[C@H](CSSC[C@@H](C(=O)N[C@@H](CCCCN)C(=O)N[C@@H](Cc2ccc(O)cc2)C(=O)N[C@H](C(=O)N[C@@H](Cc2ccccc2)C(N)=O)C(C)C)NC(=O)[C@H](Cc2c[nH]c4ccccc24)NC(=O)[C@H](CCCCN)NC(=O)[C@H](Cc2c[nH]cn2)NC(=O)[C@H]([C@@H](C)O)NC(=O)[C@H](CCCNC(=N)N)NC(=O)[C@H](CO)NC3=O)NC(=O)[C@H](CCCCN)NC(=O)[C@H](CC(=O)O)NC(=O)[C@H](CC(N)=O)NC(=O)[C@H](CC(=O)O)NC(=O)[C@@H]2CCCN2C1=O", "note": "[compound 680] (H-DCLG[Cha]FRKCIPDNDKCCRPNLVCSRTHKWCKYVF-NH2; disulfide 2-17, 9-23, 16-30)", "values": [
      {"measurement": "IC50", "setting": "[1]; use-dependent protocol, hNav1.5", "result": 3.5, "unit": "µM"},
      {"measurement": "IC50", "setting": "[2]", "result": 0.019, "unit": "µM"},
      {"measurement": "IC50", "setting": "[3]; use-dependent protocol, hNav1.3", "result": 0.032, "unit": "µM"}
    ]},
    {"smiles": "CC[C@H](C)[C@@H]1NC(=O)[C@@H]2CSSC[C@@H]3NC(=O)[C@H](C(C)C)NC(=O)[C@H](CC(C)C)NC(=O)[C@H](CC(N)=O)NC(=O)[C@@H]4CCCN4C(=O)[C@H](CCCNC(=N)N)NC(=O)[C@H](CSSC[C@H](NC(=O)[C@@H](N)CC(=O)O)C(=O)N[C@@H](CC(C)C)C(=O)NCC(=O)N[C@@H](Cc4ccccc4)C(=O)N[C@@H](CCSC)C(=O)N[C@@H](CCCNC(=N)N)C(=O)N[C@@H](CCCCN)C(=O)N2)NC(=O)[C@H](CSSC[C@@H](C(=O)N[C@@H](Cc2ccccn2)C(=O)N[C@@H](Cc2ccc(O)cc2)C(=O)N[C@H](C(=O)N[C@@H](Cc2ccccc2)C(N)=O)C(C)C)NC(=O)[C@H](Cc2c[nH]c4ccccc24)NC(=O)[C@H](CCCCN)NC(=O)[C@H](Cc2c[nH]cn2)NC(=O)[C@H]([C@@H](C)O)NC(=O)[C@H](CCCNC(=N)N)NC(=O)[C@H](CO)NC3=O)NC(=O)[C@H](CCCCN)NC(=O)[C@H](CC(=O)O)NC(=O)[C@H](CC(N)=O)NC(=O)[C@H](CC(=O)O)NC(=O)[C@@H]2CCCN2C1=O", "note": "[compound 364] (H-DCLGFMRKCIPDNDKCCRPNLVCSRTHKWC[2Pal]YVF-NH2; disulfide 2-17, 9-23, 16-30)", "values": [
      {"measurement": "IC50", "setting": "[1]; Table 25, use, […]", "result": 9.49, "unit": "µM"},
      {"measurement": "IC50", "setting": "[2]; [4]", "result": 11, "unit": "µM"},
      {"measurement": "IC50", "setting": "[3]; Table 25, use, […]", "result": 16.9, "unit": "µM"}
    ]},
    {"smiles": "CC[C@H](C)[C@@H]1NC(=O)[C@@H]2CSSC[C@@H]3NC(=O)[C@H](C(C)C)NC(=O)[C@H](CC(C)C)NC(=O)[C@H](CC(N)=O)NC(=O)[C@@H]4CCCN4C(=O)[C@H](CCCNC(=N)N)NC(=O)[C@H](CSSC[C@H](NC(=O)[C@@H](N)CC(=O)O)C(=O)N[C@@H](CC(C)C)C(=O)NCC(=O)N[C@@H](Cc4ccccc4)C(=O)N[C@@H](CCSC)C(=O)N[C@@H](CCCNC(=N)N)C(=O)N[C@@H](CCCCN)C(=O)N2)NC(=O)[C@H](CSSC[C@@H](C(=O)N[C@@H](CCCCN)C(=O)N[C@@H](CCCCN)C(=O)N[C@H](C(=O)N[C@@H](Cc2ccccc2)C(N)=O)C(C)C)NC(=O)[C@H](Cc2c[nH]c4ccccc24)NC(=O)[C@H](CCCCN)NC(=O)[C@H](Cc2cnc[nH]2)NC(=O)[C@H]([C@@H](C)O)NC(=O)[C@H](CCCNC(=N)N)NC(=O)[C@H](CO)NC3=O)NC(=O)[C@H](CCCCN)NC(=O)[C@H](CC(=O)O)NC(=O)[C@H](CC(N)=O)NC(=O)[C@H](CC(=O)O)NC(=O)[C@@H]2CCCN2C1=O", "note": "[compound 57] (H-DCLGFMRKCIPDNDKCCRPNLVCSRTHKWCKKVF-NH2; disulfide 2-17, 9-23, 16-30)", "values": [
      {"measurement": "IC50", "setting": "[1]; Table 25, use, […]", "result": 10.9, "unit": "µM"},
      {"measurement": "IC50", "setting": "[2]; [4]", "result": 4.96, "unit": "µM"},
      {"measurement": "IC50", "setting": "[3]; Table 25, use, […]", "result": 4.19, "unit": "µM"}
    ]},
    {"smiles": "CC[C@H](C)[C@@H]1NC(=O)[C@@H]2CSSC[C@@H]3NC(=O)[C@H](C(C)C)NC(=O)[C@H](CC(C)C)NC(=O)[C@H](CC(N)=O)NC(=O)[C@@H]4CCCN4C(=O)[C@H](CCCNC(=N)N)NC(=O)[C@H](CSSC[C@H](NC(=O)[C@@H](N)CC(=O)O)C(=O)N[C@@H](CC(C)C)C(=O)NCC(=O)N[C@@H](Cc4ccccc4)C(=O)N[C@@H](CCCCN)C(=O)N[C@@H](CCCNC(=N)N)C(=O)N[C@@H](CCCCN)C(=O)N2)NC(=O)[C@H](CSSC[C@@H](C(=O)N[C@@H](CCCCN)C(=O)N[C@@H](Cc2ccc(O)cc2)C(=O)N[C@H](C(=O)N[C@@H](Cc2ccccc2)C(N)=O)C(C)C)NC(=O)[C@H](Cc2c[nH]c4ccccc24)NC(=O)[C@H](CCCCN)NC(=O)[C@H](Cc2cnc[nH]2)NC(=O)[C@H]([C@@H](C)O)NC(=O)[C@H](CCCNC(=N)N)NC(=O)[C@H](CO)NC3=O)NC(=O)[C@H](CCCCN)NC(=O)[C@H](CC(=O)O)NC(=O)[C@H](CC(N)=O)NC(=O)[C@H](CC(=O)O)NC(=O)[C@@H]2CCCN2C1=O", "note": "[SEQ ID NO: 154] (H-DCLGFKRKCIPDNDKCCRPNLVCSRTHKWCKYVF-NH2; disulfide 2-17, 9-23, 16-30)", "values": [
      {"measurement": "IC50", "setting": "[1]; [5]", "result": 13.9, "unit": "µM"},
      {"measurement": "IC50", "setting": "[2]; IonWorks Quattro, clamped to −110 mV, depolarized to −10 mV, 5 min after compound, n=2, read-out: IWQ Use Nav1.7", "result": 14.5, "unit": "µM"},
      {"measurement": "IC50", "setting": "[3]; [5]", "result": 8.49, "unit": "µM"}
    ]},
    {"smiles": "CC[C@H](C)[C@@H]1NC(=O)[C@@H]2CSSC[C@@H]3NC(=O)[C@H](C(C)C)NC(=O)[C@H](CC(C)C)NC(=O)[C@H](CC(N)=O)NC(=O)[C@@H]4CCCN4C(=O)[C@H](CCCNC(=N)N)NC(=O)[C@H](CSSC[C@H](NC(=O)[C@@H](N)CC(=O)O)C(=O)N[C@@H](CC(C)C)C(=O)NCC(=O)N[C@@H](Cc4ccccc4)C(=O)N[C@@H](CCSC)C(=O)N[C@@H](CCCNC(=N)N)C(=O)N[C@@H](CCCCN)C(=O)N2)NC(=O)[C@H](CSSC[C@@H](C(=O)N[C@@H](CCCCN)C(=O)N[C@@H](Cc2ccc(O)cc2)C(=O)N(C)[C@@H](Cc2ccccc2)C(=O)N[C@@H](Cc2ccccc2)C(N)=O)NC(=O)[C@H](Cc2c[nH]c4ccccc24)NC(=O)[C@H](CCCCN)NC(=O)[C@H](Cc2c[nH]cn2)NC(=O)[C@H]([C@@H](C)O)NC(=O)[C@H](CCCNC(=N)N)NC(=O)[C@H](CO)NC3=O)NC(=O)[C@H](CCCCN)NC(=O)[C@H](CC(=O)O)NC(=O)[C@H](CC(N)=O)NC(=O)[C@H](CC(=O)O)NC(=O)[C@@H]2CCCN2C1=O", "note": "[compound 388] (H-DCLGFMRKCIPDNDKCCRPNLVCSRTHKWCKY[NMeF]F-NH2; disulfide 2-17, 9-23, 16-30)", "values": [
      {"measurement": "IC50", "setting": "[1]; Table 26, use, […]", "result": "> 5", "unit": "µM"},
      {"measurement": "IC50", "setting": "[2]; Table 26, IonWorks Quattro, use, […], read-out: IWQ Use Nav1.7", "result": 1.28, "unit": "µM"},
      {"measurement": "IC50", "setting": "[3]; Table 26, use, […]", "result": 1.09, "unit": "µM"}
    ]},
    {"smiles": "CC[C@H](C)[C@@H]1NC(=O)[C@@H]2CSSC[C@@H]3NC(=O)[C@H](C(C)C)NC(=O)[C@H](CC(C)C)NC(=O)[C@H](CC(N)=O)NC(=O)[C@@H]4CCCN4C(=O)[C@H](CCCNC(=N)N)NC(=O)[C@H](CSSC[C@H](NC(=O)[C@@H](N)CC(=O)O)C(=O)N[C@@H](CC(C)C)C(=O)NCC(=O)N[C@@H](C)C(=O)N[C@@H](Cc4ccccc4)C(=O)N[C@@H](CCCNC(=N)N)C(=O)N[C@@H](CCCCN)C(=O)N2)NC(=O)[C@H](CSSC[C@@H](C(=O)N[C@@H](CCCCN)C(=O)N[C@@H](Cc2ccc(O)cc2)C(=O)N[C@H](C(=O)N[C@@H](Cc2ccccc2)C(=O)O)C(C)C)NC(=O)[C@H](Cc2c[nH]c4ccccc24)NC(=O)[C@H](CCCNC(=N)N)NC(=O)[C@H](Cc2c[nH]cn2)NC(=O)[C@H]([C@@H](C)O)NC(=O)[C@H](CCCNC(=N)N)NC(=O)[C@H](CO)NC3=O)NC(=O)[C@H](CCCCN)NC(=O)[C@H](CC(=O)O)NC(=O)[C@H](C)NC(=O)[C@H](CC(=O)O)NC(=O)[C@@H]2CCCN2C1=O", "note": "[compound 836] (H-DCLGAFRKCIPDADKCCRPNLVCSRTHRWCKYVF-OH; disulfide 2-17, 9-23, 16-30)", "values": [
      {"measurement": "IC50", "setting": "[1]; use-dependent block, hNav1.5", "result": "> 5", "unit": "µM"},
      {"measurement": "IC50", "setting": "[2]; [6]", "result": 4.1, "unit": "µM"},
      {"measurement": "IC50", "setting": "[3]; use-dependent block, hNav1.3", "result": 1.3, "unit": "µM"}
    ]},
    {"smiles": "CC[C@H](C)[C@@H]1NC(=O)[C@@H]2CSSC[C@@H]3NC(=O)[C@H](C(C)C)NC(=O)[C@H](CC(C)C)NC(=O)[C@H](CC(N)=O)NC(=O)[C@@H]4CCCN4C(=O)[C@H](CCCNC(=N)N)NC(=O)[C@H](CSSC[C@H](NC(=O)[C@@H](N)CC(=O)O)C(=O)N[C@@H](CC(C)C)C(=O)NCC(=O)N[C@@H](C)C(=O)N[C@@H](CC(C)C)C(=O)N[C@@H](CCCNC(=N)N)C(=O)N[C@@H](CCCCN)C(=O)N2)NC(=O)[C@H](CSSC[C@@H](C(=O)N[C@@H](CCCCN)C(=O)N[C@@H](Cc2ccc(O)cc2)C(=O)N[C@H](C(=O)N[C@@H](Cc2ccccc2)C(=O)O)C(C)C)NC(=O)[C@H](Cc2c[nH]c4ccccc24)NC(=O)[C@H](CCCNC(=N)N)NC(=O)[C@H](Cc2c[nH]cn2)NC(=O)[C@H]([C@@H](C)O)NC(=O)[C@H](CCCNC(=N)N)NC(=O)[C@H](CO)NC3=O)NC(=O)[C@H](CCCCN)NC(=O)[C@H](CC(=O)O)NC(=O)[C@H](C(C)C)NC(=O)[C@H](CC(=O)O)NC(=O)[C@@H]2CCCN2C1=O", "note": "[compound 872] (H-DCLGALRKCIPDVDKCCRPNLVCSRTHRWCKYVF-OH; disulfide 2-17, 9-23, 16-30)", "values": [
      {"measurement": "IC50", "setting": "[1]; use-dependent block, hNav1.5", "result": "> 5", "unit": "µM"},
      {"measurement": "IC50", "setting": "[2]; [6]", "result": "> 5", "unit": "µM"},
      {"measurement": "IC50", "setting": "[3]; use-dependent block, hNav1.3", "result": "> 5", "unit": "µM"}
    ]}
  ]
}
